Experimental data from patent publication US11827628B2, “Compositions and methods for inhibition of the JAK pathway” (Rigel Pharmaceuticals, Inc., priority 2005, dated 2023).
Structures can show the parent of a compound that is named as a salt. Where two headings read alike, the source gives them in different places.

Assays:
[1] = system: IL-4 stimulated expression of CD23 in human Ramos B cells (JAK-1 and JAK-3); experiment: Assay for Ramos B-Cell Line Stimulated with IL-4 (CD23 upregulation, FACS); assay type: cell-based; conditions: read-out: IC50, Example 41
How it was run: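 Human Ramos B cells (5×10^4 per point, RPMI 5% serum) pre-incubated 1 h at 37 °C with compound or DMSO, then stimulated with IL-4 at 50 units/mL final for 20-24 h. CD23 upregulation measured by anti-CD23-PE staining and flow cytometry; IC50 derived.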

Primary human T-cells = experiment: Primary Human T-Cell Proliferation Assay Stimulated with IL-2 (CellTiter-Glo); assay type: cell-based; conditions: read-out: IC50, Example 42
How it was run: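 IC50 derived from CellTiter-Glo ATP signal after 72 hours of IL-2-driven proliferation at 37° C. Cells: primary human T-cells from blood, stimulated beforehand 3-4 days on anti-CD3/anti-CD28 with IL-2, then rested from IL-2 before compound exposure in duplicate; IL-2-free wells served as unstimulated control.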

[2] = Ramos B-cell line stimulated with IL-4, CD23 expression by FACS
[3] = primary human T-cell proliferation stimulated with IL-2
[4] = Ramos B cells stimulated with IL-4, CD23 expression by FACS
[5] = primary human T-cells stimulated with IL-2, proliferation

Structure (SMILES)	IC50 [1, 2]	IC50 (Primary human T-cells; [3])	IC50 [1, 4]	IC50 (Primary human T-cells; [5])	also measured
Cc1ccc(Nc2ncc(F)c(Nc3cccc(OCc4cccnc4)c3)n2)cc1S(N)(=O)=O [Compound I-183, N2-(3-Aminosulfonyl-4-methylphenyl)-5-fluoro-N4-[3-(3-pyridinyl)methyleneoxyphenyl]-2,4-pyrimidinediamine]	249 nM	1830 nM			
CNS(=O)(=O)c1cc(Nc2ncc(F)c(Nc3cccc(OCc4cccnc4)c3)n2)ccc1C [Compound I-184, 5-Fluoro-N2-[3-(N-methylaminosulfony)-4-methylphenyl]-5-fluoro-N4-[3-(3-pyridinyl)methyleneoxyphenyl]-2,4-pyrimidinediamine]	486 nM	2570 nM			
CCN(CC)CCNS(=O)(=O)c1ccc(Nc2ncc(F)c(Nc3cccc(OCc4cccnc4)c3)n2)cc1 [Compound I-186, N2-[4-(2-N,N-Diethylaminoethyl)aminosulfonylphenyl)-5-fluoro-N4-[3-(3-pyridinyl)methyleneoxyphenyl]-2,4-pyrimidinediamine]	188 nM	1080 nM			
NS(=O)(=O)c1cccc(Nc2ncc(F)c(Nc3ccc(OCc4cccnc4)cc3)n2)c1 [Compound I-188, N2-(3-Aminosulfonylphenyl)-5-fluoro-N4-[4-(3-pyridinyl)methyleneoxyphenyl]-2,4-pyrimidinediamine]	42.7 nM	64.2 nM			
Cc1ccc(Nc2ncc(F)c(Nc3ccc(OCc4cccnc4)cc3)n2)cc1S(N)(=O)=O [Compound I-189, N2-(3-Aminosulfonyl-4-methylphenyl)-5-fluoro-N4-[4-(3-pyridinyl)methyleneoxyphenyl]-2,4-pyrimidinediamine]	137 nM	143 nM			
CNS(=O)(=O)c1cc(Nc2ncc(F)c(Nc3ccc(OCc4cccnc4)cc3)n2)ccc1C [Compound I-190, 5-Fluoro-N2-[3-(N-methylaminosulfony)-4-methylphenyl]-5-fluoro-N4-[4-(3-pyridinyl)methyleneoxyphenyl]-2,4-pyrimidinediamine]	145 nM	242 nM			
CCN(CC)CCNS(=O)(=O)c1ccc(Nc2ncc(F)c(Nc3ccc(OCc4cccnc4)cc3)n2)cc1 [Compound I-191, N2-[4-(2-N,N-Diethylaminoethyl)aminosulfonylphenyl)-5-fluoro-N4-[4-(3-pyridinyl)methyleneoxyphenyl]-2,4-pyrimidinediamine]	135 nM	292 nM			
NS(=O)(=O)c1cccc(Nc2ncc(F)c(Nc3ccc(SCc4cccnc4)cc3)n2)c1 [Compound I-192, N2-(3-Aminosulfonylphenyl)-5-fluoro-N4-[4-(3-pyridinyl)-methylenethiophenyl]-2,4-pyrimidinediamine]	137 nM	155 nM			
Cc1ccc(Nc2ncc(F)c(Nc3ccc(OCc4ccncc4)cc3)n2)cc1S(N)(=O)=O [Compound I-194, N2-(3-Aminosulfonyl-4-methylphenyl)-5-fluoro-N4-[4-(4-pyridinyl)methyleneoxyphenyl]-2,4-pyrimidinediamine]	28.6 nM	99.3 nM			
NS(=O)(=O)c1cccc(Nc2ncc(F)c(Nc3ccc(OCc4ccccn4)cc3)n2)c1 [Compound I-196, N2-(3-Aminosulfonylphenyl)-5-fluoro-N4-4-[(2-pyridinyl)methyleneoxyphenyl]-2,4-pyrimidinediamine Hydrochloride Salt]					IC50 ([1]; Ramos B-cell line stimulated with IL-4, CD23 expression by FACS, Hydrochloride Salt): 124 nM; IC50 (Primary human T-cells; primary human T-cell proliferation stimulated with IL-2, Hydrochloride Salt): 139 nM
Cc1cc(COc2ccc(Nc3nc(Nc4ccc(C)c(S(N)(=O)=O)c4)ncc3F)cc2)[nH]n1 [Compound I-197, N2-(3-Aminosulfonyl-4-methylphenyl)-5-fluoro-N4-[4-(3-methyl-(1H)-pyrazol-5-yl)methyleneoxyphenyl]-2,4-pyrimidinediamine]	135 nM	329 nM			
Cc1cc(COc2ccc(Nc3nc(Nc4ccc(C)c(S(N)(=O)=O)c4)ncc3F)cc2)n(C)n1 [Compound I-198, N2-(3-Aminosulfonyl-4-methylphenyl)-N4-[4-(1,3-dimethyl-(1H)-pyrazol-5-yl)methyleneoxyphenyl]-5-fluoro-2,4-pyrimidinediamine]	102 nM	460 nM			
Cc1cc(COc2ccc(Nc3nc(Nc4ccc(C)c(S(N)(=O)=O)c4)ncc3F)cc2)n(Cc2ccccc2)n1 [Compound I-199, N2-(3-Aminosulfonyl-4-methylphenyl)-N4-[4-(1-benzyl-3-methyl-(1H)-pyrazol-5-yl)methyleneoxyphenyl]-5-fluoro-2,4-pyrimidinediamine]	240 nM	3030 nM			
Cc1ccc(Nc2nc(Nc3ccc(S(N)(=O)=O)cc3)ncc2F)cc1OCC(=O)N1CCOCC1 [Compound I-209, N2-(4-Aminosulfonylphenyl)-5-fluoro-N4-[4-methyl-3-(2-morpholinocarbonylmethyleneoxy)phenyl]-2,4-pyrimidinediamine]	580 nM	4470 nM			
Cc1cc(COc2cccc(Nc3nc(Nc4ccc(C)c(S(N)(=O)=O)c4)ncc3F)c2)no1 [Compound I-214]	144 nM	1330 nM			
CNS(=O)(=O)c1cc(Nc2ncc(F)c(Nc3ccc(Cn4ccnc4)cc3)n2)ccc1C [III-85, 5-Fluoro-N2-[3-(N-methylaminosulfony)-4-methylphenyl]-N4-[4-(1-imidazolylmethyl)phenyl]-2,4-pyrimidinediamine hydrochloride]					IC50 ([1]; Ramos B-cell line stimulated with IL-4, CD23 expression by FACS, hydrochloride): 72.7 nM; IC50 (Primary human T-cells; primary human T-cell proliferation stimulated with IL-2, hydrochloride): 122 nM
CNS(=O)(=O)c1cc(Nc2ncc(F)c(Nc3ccc(Cn4ccnc4)cc3)n2)ccc1C [III-86, 5-Fluoro-N2-[3-(N-methylaminosulfony)-4-methylphenyl]-N4-[4-(1-imidazolylmethyl)phenyl]-2,4-pyrimidinediamine dihydrochloride]					IC50 ([1]; Ramos B-cell line stimulated with IL-4, CD23 expression by FACS, dihydrochloride): 97.6 nM; IC50 (Primary human T-cells; primary human T-cell proliferation stimulated with IL-2, dihydrochloride): 93.9 nM
N#CCn1ccc2cc(Nc3nc(Nc4cccc(S(N)(=O)=O)c4)ncc3F)ccc21 [IX-5, N2-(3-Aminosulfonylphenyl)-N4-(1-cyanomethyleneindol-5-yl)-5-fluoro-2,4-pyrimidinediamine]			29.6 nM	73.8 nM	
N#CCn1ccc2cc(Nc3nc(Nc4ccc(S(N)(=O)=O)cc4)ncc3F)ccc21 [IX-6, N2-(4-Aminosulfonylphenyl)-N4-(1-cyanomethyleneindol-5-yl)-5-fluoro-2,4-pyrimidinediamine]			84 nM	535 nM	
N#CCn1ccc2cc(Nc3nc(Nc4ccc(Cl)c(S(N)(=O)=O)c4)ncc3F)ccc21 [IX-7, N2-(3-Aminosulfonyl-4-chlorophenyl)-N4-(1-cyanomethyleneindol-5-yl)-5-fluoro-2,4-pyrimidinediamine]			109 nM	751 nM	
Cc1ccc(Nc2ncc(F)c(Nc3ccc4c(ccn4CC#N)c3)n2)cc1S(N)(=O)=O [IX-8, N2-(3-Aminosulfonyl-4-methylphenyl)-N4-(1-cyanomethyleneindol-5-yl)-5-fluoro-2,4-pyrimidinediamine]			46.4 nM	124 nM	
Cc1ccc(Nc2ncc(F)c(Nc3ccc4[nH]cc(CC#N)c4c3)n2)cc1S(=O)(=O)NC1CCN(C)CC1 [IX-19, N4-(3-cyanomethylene-1H-indol-5yl)-5-fluoro-N2-[3-(1-methyl-4-aminopiperadine)sulfonyl-4-methylphenyl]-2,4-pyrimidinediamine]			118 nM	1600 nM	
Cc1ccc(Nc2ncc(F)c(Nc3ccc4c(c3)c(CC#N)cn4C)n2)cc1S(N)(=O)=O [IX-20]			122 nM	1790 nM	
NS(=O)(=O)c1cccc(Nc2ncc(F)c(Nc3ccc(OCC(F)(F)F)cc3)n2)c1 [VI-47, N2-(3-Aminosulfonylphenyl)-5-fluoro-N4-(4-trifluoromethylmethyleneoxyphenyl)-2,4-pyrimidinediamine]			82.8 nM	259 nM	
C#CCOc1ccc(Nc2nc(Nc3ccc(C)c(S(=O)(=O)NC4CCN(C)CC4)c3)ncc2F)cc1 [VI-69, 5-Fluoro-N2-{[4-methyl-3-((1-methylpiperidin-4-yl)aminosulfonyl)]phenyl} N4-[4-(prop-2-ynyloxy)phenyl]-2,4-pyrimidinediamine]			194 nM	1340 nM	
COCCOc1ccc(Nc2nc(Nc3ccc(Cl)c(S(N)(=O)=O)c3)ncc2F)cc1 [VI-111, N2-(3-Aminosulfonyl-4-chlorophenyl)-5-fluoro-N4-[4-(2-methoxyethyleneoxy)phenyl]-2,4-pyrimdinediamine]			314 nM	1090 nM	
COCCOc1ccc(Nc2nc(Nc3ccc(C)c(S(N)(=O)=O)c3)ncc2F)cc1 [VI-112, N2-(3-Aminosulfonyl-4-methylphenyl)-5-fluoro-N4-[4-(2-methoxyethyleneoxy)phenyl]-2,4-pyrimdinediamine]			152 nM	770 nM	
CCS(=O)(=O)N1CCc2cc(Nc3nc(Nc4ccc(S(N)(=O)=O)cc4)ncc3F)ccc2C1 [VII-13, N2-(4-aminosulfonyl)phenyl-N4-[(N-ethylsulfonyl)-1,2,3,4-tetrahydroisoquinolin-6-yl]-5-fluoro-2,4-pyrimidinediamine]			140 nM	380 nM	
CCS(=O)(=O)N1CCc2cc(Nc3nc(Nc4cccc(S(N)(=O)=O)c4)ncc3F)ccc2C1 [VII-14, N2-(3-aminosulfonyl)phenyl-N4-[(N-ethylsulfonyl)-1,2,3,4-tetrahydroisoquinolin-6-yl]-5-fluoro-2,4-pyrimidinediamine]			103 nM	177 nM	
